Active and inactive are the calls of the source.
Legend:
[1] = Counterscreen for inhibitors of Trypanosoma brucei methionyl tRNA synthetase (MetRS): Luminescence-based cell-based high throughput dose response assay to identify compounds that are cytotoxic to Jurkat human T lymphocyte cells.; format: functional
[2] = biological target: T1, Methionyl-tRNA synthetase, putative (Trypanosoma brucei brucei, UniProt Q38C91); format: functional, Trypanosoma brucei brucei strain 927/4 GUTat10.1
T1 sequence (Q38C91 whole entry): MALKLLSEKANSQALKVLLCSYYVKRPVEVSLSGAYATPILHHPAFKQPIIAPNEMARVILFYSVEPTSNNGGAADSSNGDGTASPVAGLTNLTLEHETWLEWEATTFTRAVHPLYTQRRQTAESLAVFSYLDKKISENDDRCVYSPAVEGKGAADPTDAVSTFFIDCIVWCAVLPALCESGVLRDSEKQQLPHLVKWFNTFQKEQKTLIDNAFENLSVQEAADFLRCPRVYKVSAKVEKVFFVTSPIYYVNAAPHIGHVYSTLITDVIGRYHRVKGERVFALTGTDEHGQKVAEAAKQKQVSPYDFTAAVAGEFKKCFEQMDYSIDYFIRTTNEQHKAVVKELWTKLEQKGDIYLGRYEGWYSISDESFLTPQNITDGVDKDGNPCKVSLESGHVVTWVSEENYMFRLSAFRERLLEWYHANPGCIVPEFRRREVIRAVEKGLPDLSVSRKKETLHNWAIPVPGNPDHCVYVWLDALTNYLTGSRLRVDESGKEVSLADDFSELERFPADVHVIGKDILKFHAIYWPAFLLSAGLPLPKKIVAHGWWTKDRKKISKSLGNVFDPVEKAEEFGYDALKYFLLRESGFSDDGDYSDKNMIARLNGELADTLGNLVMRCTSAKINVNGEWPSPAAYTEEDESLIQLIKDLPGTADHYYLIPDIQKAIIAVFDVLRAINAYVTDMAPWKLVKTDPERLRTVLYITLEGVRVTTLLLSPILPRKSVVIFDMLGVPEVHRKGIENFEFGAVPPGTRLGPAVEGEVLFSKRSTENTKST

[3] = biological target: T1, Methionyl-tRNA synthetase, putative; format: functional, Trypanosoma brucei brucei strain 927/4 GUTat10.1; remark: listed apart in the source
[4] = nonselective StAR promoter luciferase inhibitors – cell-based, luminescence, luciferase reporter, counter-screen for LRH-1 inverse agonist project, dose response (AID 651969); format: functional
[5] = biological target: Nuclear receptor subfamily 5 group A member 2 (Homo sapiens, UniProt O00482); format: functional, cell-based;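 further: HEK293T cells transfected with LRH-1 and a StAR promoter luciferase reporter; potency for inhibitors that lower LRH-1 driven reporter light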
Nuclear receptor subfamily 5 group A member 2, sequence (O00482 whole entry): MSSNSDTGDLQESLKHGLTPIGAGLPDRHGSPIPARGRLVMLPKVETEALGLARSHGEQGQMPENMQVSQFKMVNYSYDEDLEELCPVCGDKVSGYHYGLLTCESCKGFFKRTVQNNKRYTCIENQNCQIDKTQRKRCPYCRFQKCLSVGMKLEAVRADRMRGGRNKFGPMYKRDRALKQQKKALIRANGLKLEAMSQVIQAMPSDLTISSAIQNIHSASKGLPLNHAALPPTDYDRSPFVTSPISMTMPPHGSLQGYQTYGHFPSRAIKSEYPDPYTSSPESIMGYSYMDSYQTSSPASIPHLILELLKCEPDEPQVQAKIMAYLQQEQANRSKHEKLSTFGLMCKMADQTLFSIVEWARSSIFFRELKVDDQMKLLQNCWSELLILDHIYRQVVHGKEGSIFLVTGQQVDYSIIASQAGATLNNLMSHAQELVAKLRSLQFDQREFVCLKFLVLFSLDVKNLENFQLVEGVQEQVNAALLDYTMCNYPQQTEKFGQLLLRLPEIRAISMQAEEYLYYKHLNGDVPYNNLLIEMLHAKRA

Steroidogenic factor 1 = Steroidogenic factor 1 (Homo sapiens, UniProt Q13285); experiment: Counterscreen for inverse agonists of the liver receptor homolog-1 (LRH-1; NR5A2): Luminescence-based cell-based high throughput dose response assay to identify inverse agonists of the Steroidogenic Factor 1 Nuclear Receptor (SF1; NR5A1).; format: functional
Steroidogenic factor 1, sequence (Q13285 whole entry): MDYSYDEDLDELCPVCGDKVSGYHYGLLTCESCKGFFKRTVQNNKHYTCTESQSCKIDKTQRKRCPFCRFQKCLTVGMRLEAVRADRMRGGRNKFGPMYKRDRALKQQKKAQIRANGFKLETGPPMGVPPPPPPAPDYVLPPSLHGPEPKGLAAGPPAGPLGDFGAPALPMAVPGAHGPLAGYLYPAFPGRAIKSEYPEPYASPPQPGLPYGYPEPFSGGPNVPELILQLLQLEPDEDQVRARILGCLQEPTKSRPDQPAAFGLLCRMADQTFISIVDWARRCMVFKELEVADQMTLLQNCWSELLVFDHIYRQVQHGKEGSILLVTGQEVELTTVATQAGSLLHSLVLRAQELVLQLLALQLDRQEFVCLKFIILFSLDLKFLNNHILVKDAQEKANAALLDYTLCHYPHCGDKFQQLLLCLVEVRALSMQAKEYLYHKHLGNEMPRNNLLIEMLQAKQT

[6] = biological target: T2, Calpain-2 catalytic subunit (Sus scrofa, UniProt P43367); experiment: m-calpain protease blockers, concentration series – biochemical, fluorogenic peptide substrate, dose response (AID 1420); format: functional
T2 sequence (P43367 whole entry): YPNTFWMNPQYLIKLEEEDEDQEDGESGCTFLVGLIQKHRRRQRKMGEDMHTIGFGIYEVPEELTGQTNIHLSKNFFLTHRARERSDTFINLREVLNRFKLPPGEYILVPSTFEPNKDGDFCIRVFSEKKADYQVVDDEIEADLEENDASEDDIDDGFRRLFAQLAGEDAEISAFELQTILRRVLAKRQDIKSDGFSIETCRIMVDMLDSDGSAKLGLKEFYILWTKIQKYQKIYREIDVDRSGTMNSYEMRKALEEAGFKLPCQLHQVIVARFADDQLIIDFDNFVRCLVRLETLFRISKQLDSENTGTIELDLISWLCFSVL

[7] = biological target: T3, Corticotropin-releasing factor receptor 2/Corticotropin-releasing factor-binding protein (Homo sapiens, UniProt P24387+Q13324); experiment: activators of CRF receptor 2 with binding protein – uHTS hits, confirmation (AID 602473); format: functional; conditions: read-out: EC50_Mean
T3 sequence (Q13324 whole entry): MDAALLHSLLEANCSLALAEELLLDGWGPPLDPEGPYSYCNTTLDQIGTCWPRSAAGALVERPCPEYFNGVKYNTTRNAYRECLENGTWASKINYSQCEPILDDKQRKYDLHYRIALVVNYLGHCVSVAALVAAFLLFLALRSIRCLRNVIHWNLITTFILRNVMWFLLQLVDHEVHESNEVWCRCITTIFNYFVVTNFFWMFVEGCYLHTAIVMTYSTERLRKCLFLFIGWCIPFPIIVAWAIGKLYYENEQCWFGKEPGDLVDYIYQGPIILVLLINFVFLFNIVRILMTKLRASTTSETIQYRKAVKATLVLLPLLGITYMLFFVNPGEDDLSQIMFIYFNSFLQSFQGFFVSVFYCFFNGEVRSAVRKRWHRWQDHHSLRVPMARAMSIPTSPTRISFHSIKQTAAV
T3 sequence (P24387 whole entry): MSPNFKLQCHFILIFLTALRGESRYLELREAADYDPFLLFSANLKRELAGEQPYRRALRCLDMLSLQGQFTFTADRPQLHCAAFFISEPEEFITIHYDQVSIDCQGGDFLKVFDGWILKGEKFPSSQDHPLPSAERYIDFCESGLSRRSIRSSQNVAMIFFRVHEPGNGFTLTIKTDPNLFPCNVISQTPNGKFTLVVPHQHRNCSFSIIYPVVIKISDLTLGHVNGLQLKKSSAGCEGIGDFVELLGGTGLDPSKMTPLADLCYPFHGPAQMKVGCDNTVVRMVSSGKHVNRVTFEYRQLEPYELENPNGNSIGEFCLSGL

[8] = biological target: T3, Corticotropin-releasing factor receptor 2/Corticotropin-releasing factor-binding protein; experiment: Dose Response confirmation of uHTS hits for small molecule antagonists of the CRF-binding protein and CRF-R2 receptor complex.; format: functional; conditions: read-out: IC50_Mean
[9] = blockers of CRF-binding protein–CRF-R2 complex – cell-based, uHTS hits, 384-well, dose response (AID 651639); format: functional, Homo sapiens; conditions: read-out: IC50_Mean
Leucine aminopeptidase = biological target: T4, Leucine aminopeptidase (Plasmodium falciparum 3D7, UniProt Q8IL11); experiment: P. falciparum M17LAP inhibitors, primary screen, biochemical, fluorogenic H-Leu-NHMec substrate, 1536-well (AID 1619); format: functional
T4 sequence (Q8IL11 whole entry): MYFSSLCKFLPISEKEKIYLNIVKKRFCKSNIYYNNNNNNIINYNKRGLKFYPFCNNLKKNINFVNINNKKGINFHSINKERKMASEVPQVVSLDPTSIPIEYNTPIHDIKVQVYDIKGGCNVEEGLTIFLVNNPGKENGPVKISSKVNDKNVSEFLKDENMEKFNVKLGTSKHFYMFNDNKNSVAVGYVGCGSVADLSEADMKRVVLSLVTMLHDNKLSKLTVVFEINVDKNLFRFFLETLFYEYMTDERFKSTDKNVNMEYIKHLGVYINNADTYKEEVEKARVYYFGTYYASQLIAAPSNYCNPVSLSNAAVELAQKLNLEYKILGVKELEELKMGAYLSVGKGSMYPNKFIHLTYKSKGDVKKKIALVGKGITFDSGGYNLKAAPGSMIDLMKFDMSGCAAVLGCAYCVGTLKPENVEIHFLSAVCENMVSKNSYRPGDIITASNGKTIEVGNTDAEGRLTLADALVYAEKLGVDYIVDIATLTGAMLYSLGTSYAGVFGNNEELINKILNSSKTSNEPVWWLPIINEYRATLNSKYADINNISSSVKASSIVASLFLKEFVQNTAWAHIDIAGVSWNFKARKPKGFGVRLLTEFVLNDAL

Aminopeptidase N = biological target: T5, Aminopeptidase N (Plasmodium falciparum FcB1/Columbia, UniProt O96935); experiment: malaria alanyl aminopeptidase activity blockers – biochemical, fluorogenic H-Leu-NHMec substrate, 1536-well (AID 1445); parameters: species or system Plasmodium falciparum 3D7, 3D7
T5 sequence (O96935 whole entry): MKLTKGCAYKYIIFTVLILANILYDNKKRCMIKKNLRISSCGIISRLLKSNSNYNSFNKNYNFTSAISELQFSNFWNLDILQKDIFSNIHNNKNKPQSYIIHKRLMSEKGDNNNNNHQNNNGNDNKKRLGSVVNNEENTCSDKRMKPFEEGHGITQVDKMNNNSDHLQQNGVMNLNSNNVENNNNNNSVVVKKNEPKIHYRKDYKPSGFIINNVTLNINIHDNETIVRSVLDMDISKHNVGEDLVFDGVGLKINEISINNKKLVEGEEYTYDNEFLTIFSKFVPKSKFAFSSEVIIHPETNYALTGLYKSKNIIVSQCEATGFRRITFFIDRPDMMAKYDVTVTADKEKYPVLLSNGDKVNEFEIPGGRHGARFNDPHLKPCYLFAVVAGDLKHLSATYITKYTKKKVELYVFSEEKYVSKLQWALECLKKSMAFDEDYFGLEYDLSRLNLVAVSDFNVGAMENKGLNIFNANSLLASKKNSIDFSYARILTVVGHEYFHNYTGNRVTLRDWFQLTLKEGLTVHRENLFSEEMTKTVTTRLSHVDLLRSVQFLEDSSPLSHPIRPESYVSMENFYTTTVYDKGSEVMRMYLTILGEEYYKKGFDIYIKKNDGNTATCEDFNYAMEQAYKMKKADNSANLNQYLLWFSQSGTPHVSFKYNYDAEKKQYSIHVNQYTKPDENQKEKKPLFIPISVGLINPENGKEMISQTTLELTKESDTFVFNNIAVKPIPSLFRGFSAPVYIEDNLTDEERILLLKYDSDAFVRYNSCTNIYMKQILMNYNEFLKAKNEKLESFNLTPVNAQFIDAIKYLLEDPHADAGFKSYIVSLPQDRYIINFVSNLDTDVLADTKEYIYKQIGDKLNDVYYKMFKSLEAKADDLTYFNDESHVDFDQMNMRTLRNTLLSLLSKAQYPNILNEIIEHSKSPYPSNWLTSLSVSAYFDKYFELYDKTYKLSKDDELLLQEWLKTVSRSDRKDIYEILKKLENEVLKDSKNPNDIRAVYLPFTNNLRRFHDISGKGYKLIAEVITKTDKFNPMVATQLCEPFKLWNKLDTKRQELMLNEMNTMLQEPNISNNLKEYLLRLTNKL

[10] = biological target: T6, Long-chain-fatty-acid--AMP ligase FadD28 (Mycobacterium tuberculosis, UniProt P9WQ59); experiment: Fluorescence polarization aasay to screen for inhibitors that compete for the binding of FadD28 to a bisubstrate Measured in Biochemical System Using Plate Reader - 2147-01_Inhibitor_Dose_CherryPick_Activity.; format: functional, Mycobacterium tuberculosis H37Rv
T6 sequence (P9WQ59 whole entry): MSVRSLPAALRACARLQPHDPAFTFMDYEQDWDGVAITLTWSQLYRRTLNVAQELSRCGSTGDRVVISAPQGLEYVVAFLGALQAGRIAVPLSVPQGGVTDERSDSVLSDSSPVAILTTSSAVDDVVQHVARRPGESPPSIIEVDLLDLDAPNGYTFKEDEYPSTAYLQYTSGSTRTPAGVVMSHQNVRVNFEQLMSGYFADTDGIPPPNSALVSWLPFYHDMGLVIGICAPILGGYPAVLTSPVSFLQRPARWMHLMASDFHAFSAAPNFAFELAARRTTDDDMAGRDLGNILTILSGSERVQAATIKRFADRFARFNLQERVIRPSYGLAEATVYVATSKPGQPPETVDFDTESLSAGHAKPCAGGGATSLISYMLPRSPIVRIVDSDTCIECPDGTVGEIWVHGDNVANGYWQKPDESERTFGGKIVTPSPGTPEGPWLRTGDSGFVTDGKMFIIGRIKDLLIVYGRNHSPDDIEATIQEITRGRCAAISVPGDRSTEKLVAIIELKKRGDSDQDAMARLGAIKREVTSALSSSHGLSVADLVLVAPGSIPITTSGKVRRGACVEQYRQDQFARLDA

[11] = blockers of HIV-1 envelope-mediated cell-cell fusion – cherry-pick, dose response (AID 652057); format: functional, cell-based
[12] = off-target signal loss in HeLa-CEM21 co-culture – HeLa F-luc CTL cells, cherry-picked, counter-screen for HIV-1 Env fusion inhibitor project, dose response (AID 652040); format: functional, cell-based;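 further: potency for signal decrease marking cytotoxic or nonspecific inhibition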
[13] = HIV-1 AD8 envelope cell-cell fusion blockers – cherry-pick, dose response (AID 652062); format: functional, cell-based;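 further: luciferase signal from cell-cell fusion driven by HIV-1 clade B AD8 Env; potency is for inhibitors of fusion seen as a drop in luminescence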
[14] = blockers of HIV-1 ZM109 envelope-driven cell-cell fusion – HeLa effector, CEM target cells, luciferase, cherry-pick, dose response (AID 652058); format: functional, cell-based;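 further: luciferase signal from HIV-1 Env mediated cell-cell fusion of effector and target cells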

With `O=C(NNC(=O)c1cc(-c2cccnc2)nc2ccccc12)Nc1ccc(Cl)cc1` the IC50 [1] was 63 µM (inactive), the IC50 [2] was 25.8 µM (inactive) and the IC50 [3] was 39.5 µM (inactive).
In the case of `Cc1ccccc1C(=O)NC1CCN(CC(=O)Nc2ccc(Br)cc2)CC1`, the IC50 [4] is reported as 35.9 µM (inactive), the IC50 [5] is reported as 35.9 µM (inactive) and the IC50 (Steroidogenic factor 1) is reported as 3.32 µM (active).
For `O=C(NCc1ccco1)c1cccc(Nc2nc3cc(Br)ccc3[nH]2)c1`, the IC50 [1] was 83.3 µM (inactive).
For `O=C(NCc1ccco1)c1cccc(Nc2nc3ccc(Br)cc3[nH]2)c1`, the IC50 [6] was 11.9 µM (not active), the IC50 [2] was 13.5 µM (inactive) and the IC50 [3] was 22.3 µM (inactive).
For `COc1ccc(CCNC(=O)CSc2ccc(NC(C)=O)cc2)cc1OC`, the IC50 [4] was 35.9 µM (inactive), the IC50 [5] was 17.4 µM (inactive) and the IC50 (Steroidogenic factor 1) was 2.27 µM (active).
For `O=C(c1ccco1)N(Cc1cccc([N+](=O)[O-])c1)c1ccc(Br)cc1`, the IC50 [6] was 12 µM (not active), the EC50 [7] was > 53 µM (inactive) and the IC50 [8] was < 0.368 µM (active). For the same compound, the IC50 [9] was > 20 µM (inactive).
For `COc1ccc(/C=C2\SC(NS(=O)(=O)c3cccs3)=NC2=O)cc1`, the EC50 [7] was > 53 µM (inactive), the IC50 (Leucine aminopeptidase) was 31 µM (active) and the IC50 (Aminopeptidase N) was 41.1 µM (active). The IC50 [8] was 36.5 µM (active) and the IC50 [9] was > 20 µM (inactive).
For `O=C(CN1C(=O)NC2(CCOc3ccccc32)C1=O)c1ccc(Cl)s1` (stereo unspecified), the AC50 [10] was > 100 µM (inactive).
For `COc1ccc(Nc2c(CCc3ccccc3)nc3nc(C)cc(C)n23)cc1`, the AC50 [11] was 5.27 µM (active), the AC50 [12] was 4.03 µM (active) and the AC50 [13] was 4.63 µM (active). For the same compound, the AC50 [14] was 6.28 µM (active).
For `O=C(OCC(=O)c1c[nH]c2ccccc12)c1ccc(F)c(S(=O)(=O)N2CCOCC2)c1`, the AC50 [10] was 60.2 µM (active).
For `CS(=O)(=O)c1ccc(-c2cc(NC=O)c3ncc(-c4ccc(F)cc4)n3c2)cc1`, the IC50 [4] was 12.4 µM (inactive), the IC50 [5] was 4.22 µM (active) and the IC50 (Steroidogenic factor 1) was 2.73 µM (active).
